Source: PMC3914891, “Pentacyclic Nitrofurans with In Vivo Efficacy and Activity against Nonreplicating Mycobacterium tuberculosis” (PLoS ONE, 2014)
Values after ≈ are worked out from the molar mass of the structure shown. Like-named read-outs stand apart in the source and are kept apart here. Marks after values point to notes of the source that are not given here.

Tests used:
[1] = mouse plasma; ref footnote g, values reported in reference (number not given); cited from earlier work
[2] = system: M. tuberculosis; assay: MIC determination, microbroth dilution, M. tuberculosis; assay type: cell-based, Mycobacterium tuberculosis
[3] = system: Vero cells; conditions: cited from earlier work
[4] = system: Vero cells; assay: In vitro cytotoxicity against Vero cells
[5] = system: Staphylococcus aureus (ATCC 29213); assay: MIC, spectrum of activity: S.a.; assay type: cell-based; conditions: ATCC29213, read-out: Minimum Inhibitory Concentration, S.a
[6] = system: M. fortuitum (ATCC 6841); assay: MIC, non-tuberculosis mycobacteria: M. fortuitum; assay type: cell-based; conditions: Mycolicibacterium fortuitum, ATCC6841, 72 h; broth dilution, visual inspection, 3 days; read-out: Minimum Inhibitory Concentration, M. fortuitum
[7] = system: Streptococcus pneumoniae (R6); assay: MIC, spectrum of activity: S.pn; assay type: cell-based; conditions: read-out: Minimum Inhibitory Concentration, S. Pn.
[8] = system: H37Rv-wt; assay: microbe, parasite or virus in culture; assay type: cell-based, M. tuberculosis; conditions: Mycobacterium tuberculosis
[9] = system: Burkholderia cepacia (ATCC 25416); assay: MIC, spectrum of activity: B.c.; assay type: cell-based; conditions: ATCC25416, read-out: Minimum Inhibitory Concentration, B.c.
[10] = system: M. tuberculosis strain H37Rv; assay: Checkerboard synergy assay; assay type: cell-based, Mycobacterium tuberculosis; conditions: for MIC: Mycobacterium tuberculosis, 168 h, read-out: MIC Alone
[11] = system: Enterococcus faecalis (ATCC 33186); assay: MIC, spectrum of activity: E.f.; assay type: cell-based; conditions: ATCC33186, read-out: Minimum Inhibitory Concentration, E.f.
[12] = system: M. ulcerans (ATCC 35840); assay: MIC by agar proportion method: M. ulcerans; assay type: cell-based; conditions: Mycobacterium ulcerans, ATCC35840, 672 h; agar proportion method, 4 weeks; read-out: Minimum Inhibitory Concentration, M. ulcerans
[13] = system: M. kansasii (ATCC 12478); assay: MIC, non-tuberculosis mycobacteria: M. kansasii; assay type: cell-based; conditions: Mycobacterium kansasii, ATCC12478, 168 h; broth dilution, visual inspection, 7 days; read-out: Minimum Inhibitory Concentration, M. kansasii
[14] = system: M. abscessus (ATCC 19977); assay: MIC, non-tuberculosis mycobacteria: M. abscessus; assay type: cell-based; conditions: Mycobacteroides abscessus, ATCC19977, 72 h, read-out: Minimum Inhibitory Concentration, M. abscessus
[15] = system: Stenotrophomonas maltophilia (ATCC 13637); assay: MIC, spectrum of activity: S.m.; assay type: cell-based; conditions: ATCC13637, read-out: Minimum Inhibitory Concentration, S.m.
[16] = physchem; conditions: pH 7.4, aqueous buffer
[17] = system: M. tuberculosis H37Rv; assay: Minimum bactericidal concentration determination; assay type: cell-based, Mycobacterium tuberculosis
[18] = system: M. avium (ATCC 25291); assay: MIC, non-tuberculosis mycobacteria: M. avium; assay type: cell-based; conditions: Mycobacterium avium, ATCC25291, 168 h; broth dilution, visual inspection, 7 days; read-out: Minimum Inhibitory Concentration, M. avium
[19] = system: Streptococcus pyogenes (ATCC 700294); assay: MIC, spectrum of activity: S.py; assay type: cell-based; conditions: ATCC700294, read-out: Minimum Inhibitory Concentration, S. Py.
[20] = in vitro; conditions: mouse, microsomes
[21] = system: Bacillus anthracis sterne 34F2; assay: microbe, parasite or virus in culture; assay type: cell-based; conditions: STERNE34F2, read-out: Minimum Inhibitory Concentration, B.a.
[22] = In vitro cytotoxicity against Vero cells; conditions: African green monkey, Vero cells (kidney epithelial cells, ATCC CCL-81)
[23] = system: Escherichia coli (ATCC 700926); assay: MIC, spectrum of activity: E.c.; assay type: cell-based; conditions: ATCC700926, read-out: Minimum Inhibitory Concentration, E.c.
[24] = system: E. coli K12 ∆tolC; assay type: cell-based; conditions: E. coli K12 ∆tolC (efflux pump deficient)
[25] = system: hypoxic M. tuberculosis strain H37Rv; assay: NRP bacteria under hypoxia (rapid anaerobic dormancy model); assay type: cell-based, Mycobacterium tuberculosis
[26] = in vitro; conditions: mouse, plasma
[27] = system: Bacillus subtilis (ATCC 23857); assay: MIC, spectrum of activity: B.s.; assay type: cell-based; conditions: ATCC23857, read-out: Minimum Inhibitory Concentration, B.s.
[28] = system: Staphylococcus aureus (NRS70); assay: MIC, spectrum of activity: MRSA; assay type: cell-based; conditions: read-out: Minimum Inhibitory Concentration, MRSA
[29] = system: M. bovis strain BCG Pasteur; assay type: cell-based
[30] = system: M. tuberculosis strain H37Rv (mid-log and nutrient-starved); assay: Nutrient starvation model of nonreplicating persisters; assay type: cell-based, Mycobacterium tuberculosis
[31] = system: M. tuberculosis Erdman; conditions: mouse, in vivo, po, 25 mg/kg

In the case of O=[N+]([O-])c1ccc(C2=NOC(c3ccc(N4CCOCC4)cc3)C2)o1 (centres unmarked) [Compound 2], the “Plasma Protein binding” value [1] is listed as 96.4 ^g %, the MIC ([2]; Mycobacterium tuberculosis, 168 h, read-out: M. tb. MIC) is listed as 0.006 µg/mL and the “Cytotoxicity IC50” value [3] is listed as 2.9 ^g µg/mL. For the same molecule, the “Selective Index (Cytox/MIC)” value [4] was 483 and the “Solubility (pH 7.4)” value was 9.9 µg/mL.

For O=[N+]([O-])c1cn2c(n1)OC[C@@H](OCc1ccc(OC(F)(F)F)cc1)C2 [PA-824], the MIC [5] was > 200 µg/mL, the MIC [6] was > 200 µg/mL and the MIC [7] was > 200 µg/mL. For the same molecule, the MIC [8] was 0.1 µg/mL (≈ 0.278 µM), the MIC [9] was > 200 µg/mL and the “MIC in presence of 9a” value [10] was 0.01 to 0.02 µg/mL. For the same molecule, the MIC ([10]; checkerboard, H37Rv, 7 days) was 0.2 to 0.8 µg/mL, the “fold decrease of MIC in the presence of 9a” value ([10]; checkerboard, H37Rv) was ~10 fold and the “Type of Interaction” value ([10]; interaction of the treatment with 9a) was “Synergy (synergy (FICI ≤0.5))”. The MIC [11] was > 200 µg/mL, the MIC [12] was 3.1 to 25 µg/mL (≈ 8.63 to 69.6 µM) and the MIC ([2]; Mycobacterium tuberculosis, 168 h; read-out: M. tb. MIC) was 0.39 µg/mL. For the same molecule, the MIC ([2]; Mycobacterium tuberculosis; M. tuberculosis; […]; read-out: MIC) was > 1 µM, the MIC [13] was 3.1 to 12.5 µg/mL (≈ 8.63 to 34.8 µM) and the MIC [14] was > 200 µg/mL. For the same molecule, the MIC [15] was > 200 µg/mL, the solubility [16] was 8.5 µg/mL (≈ 23.7 µM) and the MBC [17] was >6. The Classification ([17]; cidal or static from MBC versus MIC) was “Static (static (MBC/MIC >4))”, the MIC [18] was > 200 µg/mL and the MIC [19] was > 200 µg/mL. For the same molecule, the half-life [20] was 8.12 h, the MIC [21] was > 200 µg/mL and the IC50 [22] was 69.4 µg/mL (≈ 193 µM). For the same molecule, the “Selective Index (Cytox/MIC)” value [4] was 178, the MIC [23] was > 200 µg/mL and the “Minimum Inhibitory Concentration, E.c. ΔtolC” value [24] was >200 µg/mL. For the same molecule, the “% Growth vs. Control” value [25] was <0.1%, the “killing of hypoxic bacilli” value ([25]; 10 µg/mL, NRP-2 bacilli) was > 99.9% and the fraction unbound [26] was 0.071. The MIC [27] was 200 µg/mL (≈ 557 µM) and the MIC [28] was > 200 µg/mL.

In the case of NNC(=O)c1ccncc1 [Isoniazid], the “FICI with 9a” value [10] is reported as 0.52–2.00, the “MIC in presence of 9a” value [10] is reported as 0.01 to 0.02 µg/mL and the “Type of Interaction” value [10] is reported as “Indifference (key: Synergy: synergy (FICI ≤0.5); Indifference: indifference (FICI >0.5–4.0); Antagonism: antagonism (FICI >4.0))”. For the same molecule, the MIC ([10]; H37RV) was 0.02 µg/mL, the PAE [29] was 71.8 h and the “fold less active against nutrient starved bacteria than against actively growing culture” value [30] was 7 fold. The “reduction in viability (killing) of actively growing culture” value [30] was > 95%, the “Log10CFU (SEM), lungs” value [31] was 4.60 (0.21) Log10CFU and the “Log10CFU (SEM), spleen” value [31] was 2.61 (0.09) Log10CFU. For the same molecule, the “% Growth vs. Control” value [25] was 29.1–49.1%.
